# Measurements reported in ChEMBL document CHEMBL3124749, “Synthesis, biological evaluation and molecular modeling study of novel tacrine-carbazole hybrids as potential multifunctional agents for the treatment of Alzheimer's disease” (Eur J Med Chem, 2014).
# Activity calls are given as the source filed them. The calls are words filed in the database; no cut-off is given here.
# Tests used:
# Cholinesterase = Cholinesterase (Homo sapiens, UniProt P06276)
# Description: Inhibition of BuChE in human serum using butyrylthiocholine iodide as substrate measured every 30s for 5 mins by Ellman's spectrophotometric method
# NG108-15 [1] = test: cells; conditions: Murinae, NG108-15, read-out: Activity
# Description: Neuroprotective activity against H2O2-induced oxidative stress in mouse/rat NG108-15 cells assessed as cell viability at 100 uM incubated for 2 hrs prior to H2O2 challenge for 2 hrs by MTT assay
# NG108-15 [2] = test: Neuroprotective activity against H2O2-induced oxidative stress in mouse/rat NG108-15 cells assessed as increase in cell viability at 1 uM incubated for 2 hrs prior to H2O2 challenge for 2 hrs by MTT assay; type: functional, cell-based
# Mus musculus [3] = test: Inhibition of scopolamine-induced cognitive deficit in ICR mouse assessed as spontaneous alternation behaviour at 50 micromol/kg, ip administered 1 hr prior to scopolamine challenge measured after 30 mins by Y-maze test (reference value: 40.22 +/-3.54%); type: functional; parameters: scale not given: the % may be the effect or the level left
# Mus musculus [4] = test: Inhibition of scopolamine-induced cognitive deficit in ICR mouse assessed as spontaneous alternation behaviour at 25 micromol/kg, ip administered 1 hr prior to scopolamine challenge measured after 30 mins by Y-maze test (reference value: 40.22 +/-3.54%); type: functional; parameters: scale not given: the % may be the effect or the level left
# Mus musculus [5] = test: Inhibition of scopolamine-induced cognitive deficit in ICR mouse assessed as time spent swimming in Q1 quadrant at 50 micromol/kg, ip administered 1 hr prior to scopolamine challenge measured after 30 mins by morris water maze test (reference value: 11.76 +/-0.49s); type: functional
# Mus musculus [6] = test: Inhibition of scopolamine-induced cognitive deficit in ICR mouse assessed as time spent swimming in Q1 quadrant at 25 micromol/kg, ip administered 1 hr prior to scopolamine challenge measured after 30 mins by morris water maze test (reference value: 11.76 +/-0.49s); type: functional
# C6 = test: cells; conditions: Rattus norvegicus, C6, 24 h, read-out: Activity
# Description: Neuroprotective activity against Abeta1-42 peptide-induced neurotoxicity in rat C6 cells assessed as cell viability at 100 uM after 24 hrs by MTT assay
# NG108-15 [7] = test: Neuroprotective activity against H2O2-induced oxidative stress in mouse/rat NG108-15 cells assessed as increase in cell viability at 10 uM incubated for 2 hrs prior to H2O2 challenge for 2 hrs by MTT assay; type: functional, cell-based
# Chain of Cholinesterase (P06276 whole entry): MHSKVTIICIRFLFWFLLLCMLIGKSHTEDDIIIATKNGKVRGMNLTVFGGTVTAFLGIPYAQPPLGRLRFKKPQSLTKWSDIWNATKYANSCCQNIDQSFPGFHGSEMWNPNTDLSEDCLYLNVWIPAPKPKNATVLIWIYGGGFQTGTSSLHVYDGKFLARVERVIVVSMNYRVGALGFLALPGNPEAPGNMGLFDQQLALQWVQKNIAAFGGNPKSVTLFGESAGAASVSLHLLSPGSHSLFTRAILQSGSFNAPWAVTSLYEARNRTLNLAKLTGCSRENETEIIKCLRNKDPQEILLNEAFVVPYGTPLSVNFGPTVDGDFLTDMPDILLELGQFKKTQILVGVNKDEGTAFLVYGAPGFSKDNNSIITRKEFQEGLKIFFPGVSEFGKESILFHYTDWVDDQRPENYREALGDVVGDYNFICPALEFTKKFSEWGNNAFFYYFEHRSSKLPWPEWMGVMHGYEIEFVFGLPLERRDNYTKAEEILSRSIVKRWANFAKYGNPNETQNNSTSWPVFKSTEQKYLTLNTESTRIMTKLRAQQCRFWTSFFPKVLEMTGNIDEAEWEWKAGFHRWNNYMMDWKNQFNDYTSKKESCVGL
smiles,measurement,setting,value
COc1ccc2c(c1)[nH]c1c(CC=C(C)C)c(O)c(C=O)cc12,IC50,Cholinesterase,> 100 µM
same,viability at 100 µM,NG108-15 [1],65.5%
CC(C)=CCc1c(O)c(C=O)cc2c1[nH]c1ccccc12 [HEPTAPHYLLINE],IC50,Cholinesterase,> 100 µM
same,viability at 100 µM,NG108-15 [1],59.8%
COc1ccc2c(c1)[nH]c1c(CC=C(C)C)c(O)c(/C=N/CCCCCNc3c4c(nc5ccccc35)CCCC4)cc12,Activity,NG108-15 [2],Active
same,Activity,Mus musculus [3],59.8%
same,Activity,Mus musculus [4],53.88%
same,Time,Mus musculus [5],17.86 s
same,Time,Mus musculus [6],17.21 s
same,IC50,Cholinesterase,52.1 µM
same,viability at 100 µM,C6,66.3%
same,viability at 100 µM,NG108-15 [1],78.4%
COc1ccc2c(c1)[nH]c1c(CC=C(C)C)c(O)c(/C=N/CCCNc3c4c(nc5ccccc35)CCCC4)cc12,Activity,NG108-15 [2],Active
same,viability at 100 µM,C6,63%
same,viability at 100 µM,NG108-15 [1],74.7%
CC(C)=CCc1c(O)c(/C=N/CCCCCNc2c3c(nc4ccccc24)CCCC3)cc2c1[nH]c1ccccc12,Activity,NG108-15 [7],Active
same,IC50,Cholinesterase,19.4 µM
same,viability at 100 µM,C6,59.4%
same,viability at 100 µM,NG108-15 [1],68.8%
